Laboratory results from patent publication US20130280259A1, “USE OF ANTIBODIES AGAINST NK1, NK2 AND/OR NK3 RECEPTORS IN CANCER TREATMENT” (SERVICIO ANDALUZ DE SALUD, priority 2010, published 2013).

Key:
[1] = test system: advanced pancreatic cancer, advanced gastric cancer, glioblastoma, breast cancer; conditions: breast cancer after first-line chemotherapy (Procc ASCO 1999-2002); cited from earlier work
[2] = test system: primary human fibroblasts (PHF); assay: Immunohistochemistry of tumour microenvironment markers in primary human fibroblasts; type: cell-based
Description: A sample of each of the cultures of the cell lines was centrifuged (5 minutes at 1,500 rpm) and the pellet obtained was dehydrated by treatment at growing concentrations of ethanol and finally in xylol. Then these dehydrated samples were included in paraffin creating a block of cells. These paraffin blocks were cut in a microtome at a thickness of 5 micra and deparaffinised by sinking in xylol, to be subsequently hydrated through a number of solutions containing decreasing concentrations of ethanol and be finally sank in water. Then, these samples were subject to treatment in a pressure cooker in citrate buffer 10× at pH 6.0, to obtain a higher exposure of antigens. Subsequently, the samples were cooled at room temperature for 10 minutes. The endogenous peroxidase activity was blocked with 3% hydrogen peroxide for 30 minutes at room temperature. After washing the samples with 0.05 M of Tris buffer, they were incubated with swine non-immune serum at 10% for 30 minutes at room temperature. […]
PHF were obtained and purified from samples obtained from the skin dermis as described in De Bari et al. (De Bari et al., 2001). In brief, small pieces of skin dermis were digested in a hyaluronidase solution (Sigma-Aldrich, St. Louis, Mo., US) at a concentration of 1 mg/mL for 15 minutes at 37° C. and subsequently treated with 6 mg/mL of type IV collagenase (Invitrogen) for 2 hours at 37° C. Then the cells were washed, resuspended in DMEM culture medium with a high concentration of glucose (Dulbecco's Modified Eagle's Medium, Invitrogen) supplemented with 1% of antibiotics-antimicotics (Invitrogen) and with 1% of sodium pyruvate (Invitrogen), and sown in 6-well culture plaques at a concentration of 10,000 cells per square centimetre. When the cells reached confluence, the adherent cells were separated using 0.5% sterile trypsin (Invitrogen) and were used between runs 3 and 9. For stimulation of substance P and exposure to anti-NK1, anti-NK2 and anti-NK3 antibodies, PHF were sown in 24-well plaques at a concentration of 25,000 cells per well.
For the purpose of analysing the expression of these cell markers in PHF cultures in the presence of the NK1, NK2 and NK3 receptor agonist and in the presence of anti-NK1, NK2 or NK3 antibodies, these cells were cultured in the presence of substance P (NK1, NK2 and NK3 receptor agonist) at a concentration of 1 μM (product no. S6883; Sigma-Aldrich). In other wells and simultaneously these cells were cultured with substance P at the same concentration and simultaneously together with anti-NK1, anti-NK2 or anti-NK3 antibodies (Sigma-Aldrich) at a 1/100 concentration. After 48 hours of culture, the cells were recollected and cell blocks were built for immunohistochemistry assays, as explained in example 1. In the immunohistochemistry assays, the expression of the following markers was assayed: TGF-alpha (SAB4502953), TGF-beta 1 (SAB4502954), TGF-beta 2 (SAB4502956), TGF-beta 3 (SAB4502957), SPARC(HPA002989) MMP-3 (HPA007875); MMP-7 (SAB4501894), MMP-9 (SAB4501896), MMP-11 (SAB4501898), MMP-13 (SAB4501900) and MMP-14 (SAB4501901), by specific antibodies against them. For performing these immunohistochemistry assays, all antibodies were mouse polyclonal antibodies obtained from Sigma Aldrich, used at a 1/1000 concentration. The immunohistochemistry techniques were performed as described in Example 1. The results are summarised in Table 2, that gives the type of marker and the mean percentage of cells with immunostaining for this marker.
(§1) To assess immunostaining, six serial sections were made of each block placed over slides for performing the immunohistochemistry technique for each marker. Therefore, the immunohistochemical assay was performed six times for each marker in each case. In each of the six sections, cell count was performed in 20 fields of high magnification (400×) using a microscope of Olympus brand (model CX31). […]

[3] = test system: human polymorphonuclear blood cells; assay: Immunohistochemistry of TGF-beta and NF-kB in polymorphonuclear blood cells; type: cell-based; conditions: incubated with PHF; Substance P (1 μM) alone; 48 hours
From the text: (§2) Heparinised blood from healthy donors was centrifuged, separating the different components thereof. Red blood cells remain in the bottom of the tube. Above them, there is a small whitish layer formed by white blood cells and above, in the upper part of the tube, blood plasma. The white blood cell layer was distributed in a culture plate of 24 wells, adding to each of them the same concentration of blood plasma supplemented with 1% of antibiotics-antimicotics (Invitrogen). About 1000 cells (PHF) from the skin dermis, obtained as described above, were added to each well.
as §1, with “CX31). In each field, the total cell number and the number of cells with immunostaining were counted, subsequently measuring the percentage of cells with this immunostaining.” for “CX31).”
(§3) The modification of the peritumoural microenvironment by treatment with anti-NK1, NK2 and/or NK3 antibodies has also been analysed determining the involvement of mononuclear and polymorphonuclear blood cells in this tumoural microenvironment. […]

[4] = test system: human mononuclear blood cells; assay: Immunohistochemistry of TGF-beta and NF-kB in mononuclear blood cells; type: cell-based; conditions: incubated with PHF; Substance P (1 μM) alone; 48 hours
From the text: as §2
as §1, with “CX31). In each field, the total cell number and the number of cells with immunostaining were counted, subsequently measuring the percentage of cells with this immunostaining.” for “CX31).”
as §3

[5] = PHF, Substance P (1 μM) alone, 48 hours

Row | Compound | Efficacy for the treatment of cancer [1] | Immunostaining for the markers tested (TGF-alpha, TGF-beta 1-3, SPARC, MMPs) ([2]; PHF cell cultures treated only with substance P) | Percentage of cells with expression for MMP-3 [2, 5] [%] | Percentage of cells with expression for MMP-7 [2, 5] [%] | Percentage of cells with expression for MMP-9 [2, 5] [%] | Percentage of cells with expression for MMP-11 [2, 5] [%] | Percentage of cells with expression for MMP-13 [2, 5] [%] | Percentage of cells with expression for MMP-14 [2, 5] [%] | Percentage of cells with expression for SPARC [2, 5] [%] | Percentage of cells with expression for TGF-alpha [2, 5] [%] | Percentage of cells with expression for TGF-beta 1 [2, 5] [%] | Percentage of cells with expression for TGF-beta 2 [2, 5] [%] | Percentage of cells with expression for TGF-beta 3 [2, 5] [%] | Percentage of polymorphonuclear cells with expression for NF-kB [3] [%] | Percentage of polymorphonuclear cells with expression for TGF-beta [3] [%] | Percentage of mononuclear cells with expression for NF-kB [4] [%] | Percentage of mononuclear cells with expression for TGF-beta [4] [%]
1 | CNC(=O)[C@@H](NC(=O)[C@H](CC(C)C)[C@H](O)C(=O)NO)C(C)(C)C [Marimastat] | effective | – | – | – | – | – | – | – | – | – | – | – | – | – | – | – | –
2 | Substance P | – | presence of all markers tested | 33.9 | 46.2 | 35.5 | 7.8 | 17.1 | 47.3 | 16 | 16.5 | 18.4 | 24.6 | 23.1 | 17.5 | 36.8 | 25.7 | 16.4
